Laboratory results: ChEMBL document CHEMBL1148087, “Structure and absolute configuration of palmonine F, a new eunicellin-based diterpene from the gorgonian Eunicella verrucosa” (1994)
≈ marks a conversion by molar mass, not a printed value.

How the values were obtained:
Format in all cases: functional
Conditions in all cases: read-out: ED50 (the source's name)
P388 = experiment: Cytotoxicity against mouse P388 cells
A549 = experiment: Cytotoxicity against human A549 cells
HT-29 = experiment: Cytotoxicity against human HT-29 cells
SK-MEL-28 = experiment: Cytotoxicity against human SK-MEL-28 cells

CO[C@H]1CC[C@@](C)(OC(C)=O)[C@@H]2O[C@H](C[C@]1(C)O)[C@@H]1[C@H]2[C@@H](C(C)C)CC[C@@]1(C)OC(C)=O [PALMONINE A]
EC50 (P388): > 10 µg/mL
EC50 (A549): > 10 µg/mL
EC50 (HT-29): > 10 µg/mL
EC50 (SK-MEL-28): > 10 µg/mL

C=C1C[C@H]2O[C@H]([C@H]3[C@@H]2[C@](C)(OC(C)=O)CC[C@@H]3C(C)C)[C@](C)(OC(C)=O)CC[C@@H]1OC(C)=O [PALMONINE B]
EC50 (P388): 5 µg/mL (≈ 10.8 µM)
EC50 (SK-MEL-28): 5 µg/mL (≈ 10.8 µM)

CO[C@H]1CC[C@@](C)(OC(C)=O)[C@@H]2O[C@H](C[C@]1(C)O)[C@@H]1[C@H]2[C@@H](C(C)C)CC[C@@]1(C)O [PALMONINE C]
EC50 (P388): > 10 µg/mL
EC50 (A549): > 10 µg/mL
EC50 (HT-29): > 10 µg/mL
EC50 (SK-MEL-28): > 10 µg/mL

C=C1C[C@H]2O[C@H]([C@H]3[C@@H]2[C@](C)(OC(C)=O)CC[C@@H]3C(C)C)[C@](C)(OC(C)=O)CCC1=O [PALMONINE D]
EC50 (P388): > 10 µg/mL
EC50 (A549): > 10 µg/mL
EC50 (HT-29): > 10 µg/mL
EC50 (SK-MEL-28): > 10 µg/mL

CC(=O)O[C@]1(C)CC[C@H](C(C)C)[C@@H]2[C@H]1[C@H]1/C=C(/C)C(=O)CC[C@@](C)(OC(C)=O)[C@@H]2O1 [PALMONINE E]
EC50 (P388): > 10 µg/mL
EC50 (A549): > 10 µg/mL
EC50 (HT-29): > 10 µg/mL
EC50 (SK-MEL-28): > 10 µg/mL

C=C1C[C@H]2O[C@H]([C@H]3[C@@H]2[C@](C)(OC(C)=O)CC[C@@H]3C(C)C)[C@](C)(OC(C)=O)CC[C@@H]1O [PALMONINE F]
EC50 (P388): > 10 µg/mL
EC50 (A549): > 10 µg/mL
EC50 (HT-29): > 10 µg/mL
EC50 (SK-MEL-28): > 10 µg/mL
